Data as given in patent US8993634B2, “Methods and use of compounds that bind to Her2/neu receptor complex” (The Trustees Of The University Of Pennsylvania, priority 2010, dated 2015).

Legend:
SK-BR-3 cells = test: Anchorage-independent growth (soft agar colony) screening, SK-BR-3 cells; type: cell-based, human; details: p<0.05, FIG. 1
Protocol: (§1) Targeted molecules were screened in vitro for anti-tumor activity using a modified […] growth of transformed cell assay, as described in Fukazawa et al. (1995), Anal. Biochem., 10:83-90. Anchorage-independent growth capability is perhaps the best indicator of the malignant phenotype and is determined by efficiency of cells to form colonies in soft agar (Drebin, et al., 1985). All experiments were conducted in 6 cm dishes in triplicate. Agar bottom layers consisted of 3 ml 0.25% agarose/DMEM (Dulbecco's Modified Eagle Medium) supplemented with 10% FBS (Fetal Bovine Serum), 2 mM L-glutamine, and 100μ/ml Penicillin/1 μg/ml Streptomycin. About 1000-2000 cells T6-17/SK-BR-3 are layered on the top in 1 ml 0.18% agarose/DMEM, 10% FBS, 2 mM L-glutamine, and 100 u/ml Penicillin/i 1 μg/ml Streptomycin. Cultures were treated every 3 days with 0.5 ml of supplemented DMEM containing measured amounts of the Her2 inhibitors, or DMSO (dimethyl sulfoxide) alone. On the day before the colonies were counted, the samples were incubated with 1 ml of Hank's Balanced Salt Solution containing 1 mg/ml p-iodonitrotetrazolium violet (INT, Sigma) to stain colonies. The next day, colonies were counted using a 7× achromatic magnifying eyepiece (Bausch and Lomb). Triplicate cultures were counted on day 21 and will be verified by at least two different persons. […]

T6-17 cells = test: Anchorage-independent growth (soft agar colony) screening, T6-17 cells; type: cell-based, murine; details: p<0.05, FIG. 1
Protocol: as §1

SMILES: CC(C)(C#Cc1cc(C(F)(F)F)cc(C(F)(F)F)c1)NC(=S)Nc1cccc(F)c1 [S22—04]
- cellular growth in culture (colonies in soft agar) (SK-BR-3 cells): reduced cellular growth in culture
- cellular growth in culture (colonies in soft agar) (T6-17 cells): reduced cellular growth in culture
